Reference: patent US10206937B2, “Boronic acid derivatives and therapeutic uses thereof” (Qpex Biopharma, Inc., priority 2014, dated 2019)

Key:
[1] = biological target: T1, NDM-1 (Klebsiella pneumoniae, UniProt C7C422); test: biochemical; settings: cleavage of imipenem (100 uM) by NDM-1; read-out: Ki, Imipenem
[2] = biological target: T2, VIM-1 (Pseudomonas aeruginosa, UniProt A0A0F7KYQ8); test: biochemical; settings: cleavage of nitrocefin (200 uM) by VIM-1 supernatant
T2 construct: made in house; host or cells: ECM6711 strain carrying pUCP24-VIM-1 plasmid; culture supernatant used unpurified

[3] = biological target: T1, NDM-1; test: Inhibition of purified class B carbapenemase NDM-1 (Ki, imipenem substrate); type: biochemical; settings: NDM-1, substrate imipenem; read-out: Ki NDM-1, Imipenem
[4] = biological target: purified class A, C and D enzymes (Enterobacter cloacae, UniProt P05364); type: biochemical; settings: purified P99/AmpC of ECL; nitrocefin reporter substrate
purified class A, C and D enzymes (Enterobacter cloacae, UniProt P05364), sequence (P05364 21-381): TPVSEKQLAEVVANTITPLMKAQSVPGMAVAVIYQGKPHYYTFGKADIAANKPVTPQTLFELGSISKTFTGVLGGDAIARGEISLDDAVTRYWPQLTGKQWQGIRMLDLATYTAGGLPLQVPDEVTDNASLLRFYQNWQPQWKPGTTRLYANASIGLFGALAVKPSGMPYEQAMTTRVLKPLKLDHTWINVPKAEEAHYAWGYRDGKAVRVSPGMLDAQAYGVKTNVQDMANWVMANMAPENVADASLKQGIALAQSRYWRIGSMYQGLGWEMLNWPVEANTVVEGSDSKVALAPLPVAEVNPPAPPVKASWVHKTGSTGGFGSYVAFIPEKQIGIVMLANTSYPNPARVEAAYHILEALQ

[5] = biological target: purified class A, C and D enzymes (Escherichia coli, UniProt Q9L5C7); type: biochemical; settings: purified CTX-M-14; nitrocefin reporter substrate
purified class A, C and D enzymes (Escherichia coli, UniProt Q9L5C7), sequence (Q9L5C7 entry or part of it): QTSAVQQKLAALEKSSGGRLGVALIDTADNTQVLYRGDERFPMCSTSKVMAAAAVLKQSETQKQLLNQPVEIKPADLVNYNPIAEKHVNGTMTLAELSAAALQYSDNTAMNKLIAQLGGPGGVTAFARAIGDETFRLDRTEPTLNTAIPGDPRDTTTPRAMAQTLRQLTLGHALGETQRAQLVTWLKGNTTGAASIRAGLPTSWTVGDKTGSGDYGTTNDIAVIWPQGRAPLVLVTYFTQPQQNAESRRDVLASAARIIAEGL

[6] = biological target: T3, purified class A, C and D enzymes (UniProt P0AD64, L31Q/G234S/E235K, species not given); type: biochemical; settings: read-out: Ki (SHV-12, NCF); purified SHV-12; nitrocefin reporter substrate
T3 construct: Ki (SHV-12, NCF); other: purified SHV-12; nitrocefin reporter substrate
T3 sequence (P0AD64 1-286 L31Q/G234S/E235K): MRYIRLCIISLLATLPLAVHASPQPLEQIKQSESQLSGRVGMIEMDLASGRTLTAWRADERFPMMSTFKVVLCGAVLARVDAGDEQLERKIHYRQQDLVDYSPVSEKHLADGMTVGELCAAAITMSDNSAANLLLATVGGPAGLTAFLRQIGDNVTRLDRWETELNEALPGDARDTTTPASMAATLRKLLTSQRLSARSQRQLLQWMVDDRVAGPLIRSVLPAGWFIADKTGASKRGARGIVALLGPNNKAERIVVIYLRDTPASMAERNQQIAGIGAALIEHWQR

[7] = biological target: T4, purified class A, C and D enzymes (UniProt Q6XEC0); type: biochemical; settings: read-out: Ki (OXA-48, NCF); purified OXA-48; nitrocefin reporter substrate
T4 construct: rows headed: Ki (OXA-48, NCF); other: purified OXA-48; nitrocefin reporter substrate

[8] = biological target: T5, purified class A, C and D enzymes (UniProt Q9F663); type: biochemical; settings: read-out: Ki (KPC-2, NCF); purified KPC-2; nitrocefin reporter substrate
T5 construct: rows headed: Ki (KPC-2, NCF); other: purified KPC-2; nitrocefin reporter substrate

T1 sequence (C7C422 29-270, looked up, species assumed): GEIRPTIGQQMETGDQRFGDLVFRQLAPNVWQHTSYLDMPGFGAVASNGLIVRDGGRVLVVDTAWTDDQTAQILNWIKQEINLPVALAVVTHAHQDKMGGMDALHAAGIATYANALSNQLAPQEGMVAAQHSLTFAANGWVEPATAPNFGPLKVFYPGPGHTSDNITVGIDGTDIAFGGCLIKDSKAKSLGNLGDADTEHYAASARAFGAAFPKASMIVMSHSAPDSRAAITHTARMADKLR

Compound | Ki [1] [nM] | IC50 [2] [nM] | Ki [3] [nM] | Ki (P99/AmpC of ECL, NCF) [4] | Ki (CTX-M-14, NCF) [5] | Ki [6] [nM] | Ki [7] [nM] | Ki [8] [nM]
COc1ccc2c(c1C(=O)O)OB(O)[C@@H](Sc1cncs1)C2 [Compound 69, (3R)-2-hydroxy-7-methoxy-3-thiazol-5-ylsulfanyl-3,4-dihydro-1,2-benzoxaborinine-8-carboxylic acid] | > 100 | < 1000 | > 100 | Y (0.1 μM to 1 μM) | X (Less than 0.1 μM) | < 100 | < 100 | < 100
COc1ccc2c(c1C(=O)O)OB(O)[C@@H](Sc1nnc[nH]1)C2 [Compound 70, (3R)-2-hydroxy-7-methoxy-3-(4H-1,2,4-triazol-3-ylsulfanyl)-3,4-dihydro-1,2-benzoxaborinine-8-carboxylic acid] | 10 to 100 | < 1000 | 10 to 100 | Y (0.1 μM to 1 μM) | X (Less than 0.1 μM) | < 100 | < 100 | 100 to 1000
COc1ccc2c(c1C(=O)O)OB(O)[C@@H](Sc1nnc(CN3CCNCC3)n1N)C2 [Compound 71, (3R)-3-[[4-amino-5-(piperazin-1-ylmethyl)-1,2,4-triazol-3-yl]sulfanyl]-2-hydroxy-7-methoxy-3,4-dihydro-1,2-benzoxaborinine-8-carboxylic acid] | 10 to 100 | < 1000 | 10 to 100 | Z (Greater than 1 μM) | X (Less than 0.1 μM) | < 100 | 100 to 1000 | 100 to 1000
COc1ccc2c(c1C(=O)O)OB(O)[C@@H](SCCN1CCNCC1)C2 [Compound 72, (3R)-2-hydroxy-7-methoxy-3-(2-piperazin-1-ylethylsulfanyl)-3,4-dihydro-1,2-benzoxaborinine-8-carboxylic acid] | > 100 | < 1000 | > 100 | Y (0.1 μM to 1 μM) | X (Less than 0.1 μM) | < 100 | < 100 | < 100
COc1ccc2c(c1C(=O)O)OB(O)[C@@H](Sc1nncn1CCCCN)C2 [Compound 73, (3R)-3-[[4-(4-aminobutyl)-1,2,4-triazol-3-yl]sulfanyl]-2-hydroxy-7-methoxy-3,4-dihydro-1,2-benzoxaborinine-8-carboxylic acid] | 10 to 100 | < 1000 | 10 to 100 | Z (Greater than 1 μM) | X (Less than 0.1 μM) | < 100 | < 100 | 100 to 1000
COc1ccc2c(c1C(=O)O)OB(O)[C@@H](Sc1nc(N)ns1)C2 [Compound 74, (3R)-3-[(3-amino-1,2,4-thiadiazol-5-yl)sulfanyl]-2-hydroxy-7-methoxy-3,4-dihydro-1,2-benzoxaborinine-8-carboxylic acid] | > 100 | < 1000 | > 100 | Y (0.1 μM to 1 μM) | X (Less than 0.1 μM) | < 100 | < 100 | < 100
COc1ccc2c(c1C(=O)O)OB(O)[C@@H](Sc1ncns1)C2 [Compound 75, (3R)-2-hydroxy-7-methoxy-3-(1,2,4-thiadiazol-5-ylsulfanyl)-3,4-dihydro-1,2-benzoxaborinine-8-carboxylic acid] | > 100 | < 1000 | > 100 | Y (0.1 μM to 1 μM) | X (Less than 0.1 μM) | < 100 | < 100 | < 100
NCCOc1ccc2c(c1C(=O)O)OB(O)[C@@H](Sc1nnc(N)s1)C2 [Compound 79, (3R)-7-(2-aminoethoxy)-3-[(5-amino-1,3,4-thiadiazol-2-yl)sulfanyl]-2-hydroxy-3,4-dihydro-1,2-benzoxaborinine-8-carboxylic acid] | > 100 | ≥ 1000 | > 100 | Y (0.1 μM to 1 μM) | X (Less than 0.1 μM) | < 100 | < 100 | > 1000
NC(=O)COc1ccc2c(c1C(=O)O)OB(O)[C@@H](Sc1nnc(N)s1)C2 [Compound 80, (3R)-7-(2-amino-2-oxo-ethoxy)-3-[(5-amino-1,3,4-thiadiazol-2-yl)sulfanyl]-2-hydroxy-3,4-dihydro-1,2-benzoxaborinine-8-carboxylic acid] | > 100 | < 1000 | > 100 | Y (0.1 μM to 1 μM) | X (Less than 0.1 μM) | < 100 | < 100 | 100 to 1000
Nc1nnc(S[C@H]2Cc3ccc(OCC(=O)NC4CNC4)c(C(=O)O)c3OB2O)s1 [Compound 81, (3R)-3-[(5-amino-1,3,4-thiadiazol-2-yl)sulfanyl]-7-[2-(azetidin-3-ylamino)-2-oxo-ethoxy]-2-hydroxy-3,4-dihydro-1,2-benzoxaborinine-8-carboxylic acid] | > 100 | ≥ 1000 | > 100 | Y (0.1 μM to 1 μM) | X (Less than 0.1 μM) | < 100 | < 100 | > 1000
COc1ccc2c(c1C(=O)O)OB(O)[C@@H](Sc1nc(N)n[nH]1)C2 [Compound 82, (3R)-3-[(3-amino-1H-1,2,4-triazol-5-yl)sulfanyl]-2-hydroxy-7-methoxy-3,4-dihydro-1,2-benzoxaborinine-8-carboxylic acid] | < 10 | < 1000 | < 10 | Y (0.1 μM to 1 μM) | X (Less than 0.1 μM) | < 100 | < 100 | 100 to 1000
CCOc1ccc2c(c1C(=O)O)OB(O)[C@@H](Sc1nnc(N)s1)C2 [Compound 83, (3R)-3-[(5-amino-1,3,4-thiadiazol-2-yl)sulfanyl]-7-ethoxy-2-hydroxy-3,4-dihydro-1,2-benzoxaborinine-8-carboxylic acid] | < 10 | < 1000 | < 10 | Y (0.1 μM to 1 μM) | X (Less than 0.1 μM) | < 100 | < 100 | 100 to 1000
Nc1nnc(S[C@H]2Cc3ccc(OC(F)F)c(C(=O)O)c3OB2O)s1 [Compound 84, (3R)-3-[(5-amino-1,3,4-thiadiazol-2-yl)sulfanyl]-7-(difluoromethoxy)-2-hydroxy-3,4-dihydro-1,2-benzoxaborinine-8-carboxylic acid] | 10 to 100 | < 1000 | 10 to 100 | Y (0.1 μM to 1 μM) | X (Less than 0.1 μM) | < 100 | < 100 | 100 to 1000
CC(C)Oc1ccc2c(c1C(=O)O)OB(O)[C@@H](Sc1nncs1)C2 [Compound 85, (3R)-2-hydroxy-7-isopropoxy-3-(1,3,4-thiadiazol-2-ylsulfanyl)-3,4-dihydro-1,2-benzoxaborinine-8-carboxylic acid] | > 100 | < 1000 | > 100 | Y (0.1 μM to 1 μM) | X (Less than 0.1 μM) | < 100 | < 100 | 100 to 1000
N#CCOc1ccc2c(c1C(=O)O)OB(O)[C@@H](Sc1nncs1)C2 [Compound 86, (3R)-7-(cyanomethoxy)-2-hydroxy-3-(1,3,4-thiadiazol-2-ylsulfanyl)-3,4-dihydro-1,2-benzoxaborinine-8-carboxylic acid] | > 100 | < 1000 | > 100 | Z (Greater than 1 μM) | X (Less than 0.1 μM) | < 100 | < 100 | 100 to 1000
O=C(O)c1c(OCCF)ccc2c1OB(O)[C@@H](Sc1nncs1)C2 [Compound 87, (3R)-7-(2-fluoroethoxy)-2-hydroxy-3-(1,3,4-thiadiazol-2-ylsulfanyl)-3,4-dihydro-1,2-benzoxaborinine-8-carboxylic acid] | > 100 | < 1000 | 10 to 100 | Y (0.1 μM to 1 μM) | X (Less than 0.1 μM) | < 100 | < 100 | 100 to 1000
